From patent US20140162285A1, “Methods of Modulating Vesicular Trafficking” (The General Hospital Corporation, priority 2009, published 2014)
Peptide text beside a SMILES is read from it. * marks the point of attachment. Biotin = O=C1N[C@H]2[C@H](CS[C@H]2CCCCC(=O)*)N1

T1: ARNO Sec7-domain (Homo sapiens, UniProt Q99418)
T1 construct: iii) 61-252aa, Sec7 domain; made in house; host or cells: E. coli BL21(DE3)
T1 sequence (Q99418 61-252): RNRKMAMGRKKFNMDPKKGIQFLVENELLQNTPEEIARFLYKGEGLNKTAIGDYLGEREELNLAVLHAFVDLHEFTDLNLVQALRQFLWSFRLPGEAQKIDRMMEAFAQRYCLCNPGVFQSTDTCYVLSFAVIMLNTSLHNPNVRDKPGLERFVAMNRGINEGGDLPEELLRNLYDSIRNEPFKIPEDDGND


Tests used:
PB-domain of ARNO = molecular target: T2, PB-domain of ARNO (Homo sapiens, UniProt Q99418); assay: a2N-derived peptide pull-down with GST-PB domain; type: binding
T2 construct: v) 379-400aa, polybasic (PB) domain; made in house; host or cells: E. coli BL21(DE3)
T2 sequence (Q99418 379-400 limits assumed): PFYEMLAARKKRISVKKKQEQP
Description: FIGS. 5A-C are a set of three images of Western blots showing the identification of interaction motif of a2N that is involved in specific binding with the Sec7 domain of ARNO. 5A, The catalytic Sec7 domain of ARNO interacts with two a2N-derived peptides, a2N-01 and a2N-03, in pull-down experiments. The peptide pull-down assay was performed with six a2N-derived interaction peptides immobilized on streptavidin-beads and incubated with purified recombinant GST-only or GST-Sec7 domain. Interacting complexes were eluted and analyzed by Western blotting using monoclonal anti-GST antibodies as described below. The loading controls for GST-only (lane 1) or GST-Sec7 (lane 2) are shown. […] The peptide pull-down assay was performed with peptides a2N-01 and a2N-03 immobilized on streptavidin-beads and incubated with purified recombinant GST-PH domain (5B) or GST-PB domain (5C). Interacting complexes were eluted and analyzed by Western blotting using monoclonal anti-GST antibodies. […]
These a2N-derived peptides were immobilized by an N-terminal biotin-tag, which ensured the same efficiency and equivalent binding to streptavidin-agarose beads. […] After washing beads four times in ice-cold binding buffer, the interacting complexes were eluted by boiling in SDS-PAGE sample buffer for 10 min at 95° C., resolved by SDS-PAGE and analyzed by Western blotting using monoclonal anti-GST antibody. […]

ARNO Sec7-domain = molecular target: T1, ARNO Sec7-domain; assay: GST pull-down of in vitro translated a2N with ARNO Sec7-domain; type: binding; settings: Western blot anti-a2N
Description: The purified recombinant GST-ARNO(wt) and GST-tagged ARNO domain constructs ([…]) were incubated with 10 μl of in vitro translated 6His-a2N recombinant protein at 4° C. for 2 hours in 500 μl of binding buffer (10 mM HEPES, 1 mM EDTA, 1 mM DTT, 100 mM NaCl, 10% glycerol, 0.1% NP-40) with gentle rotation. Then the interacting recombinant proteins were immobilized on glutathione beads by incubation with 50 μl of 50% glutathione Sepharose 4B slurry for 2 hours at 4° C. The beads were collected by centrifugation and washed 5 times with 500 μl ice-cold binding buffer. Interacting proteins were eluted by boiling in SDS-PAGE sample buffer for 10 min at 95° C., resolved by SDS-PAGE and analyzed by Western blotting using polyclonal anti-a2N antibodies. […]
To examine the ability of these well-defined and functionally distinct domains of ARNO to interact with a2N1-402, full-length ARNO(wt) and its four domains were cloned separately for bacterial expression of recombinant proteins (FIG. 3). […] Interacting proteins were detected by western blot analysis with a2-specific antibodies as described above.

interaction with PB-domain of ARNO (PB-domain of ARNO)	Molecule	interaction of a2N with ARNO Sec7-domain (ARNO Sec7-domain)
does not interact	CSCC[C@H](NC(=O)CCCC[C@@H]1SC[C@@H]2NC(=O)N[C@@H]21)C(=O)NCC(=O)N[C@@H](CO)C(=O)N[C@@H](CC(C)C)C(=O)N[C@@H](Cc1ccccc1)C(=O)N[C@@H](CCCNC(=N)N)C(=O)N[C@@H](CO)C(=O)N[C@@H](CCC(=O)O)C(=O)N[C@@H](CO)C(=O)N[C@@H](CCSC)C(=O)N[C@@H](CS)C(=O)N[C@@H](CC(C)C)C(=O)N[C@@H](C)C(=O)N[C@@H](CCC(N)=O)C(=O)N[C@@H](CC(C)C)C(=O)N[C@@H](Cc1ccccc1)C(=O)N[C@@H](CC(C)C)C(=O)N[C@@H](CS)C(=O)O [a2N-01, Bio-MGSLFRSE SMCLAQLFL-Cys] (Biotin-MGSLFRSESMCLAQLFLC-OH; N-terminus and C-terminus assumed)	–
–	a2N: recombinant N-terminal cytosolic tail, amino acid residues 1-402 of mouse V-ATPase a2-subunit (protein, left off: small tags and cut ends, recombinant N-terminal cytosolic tail, amino acid residues 1-402 of mouse V-ATPase a2-subunit) MGSLFRSESMCLAQLFLQSGTAYECLSALGEKGLVQFRDLNQNVSSFQRKFVGEVKRCEELERILVYLVQEITRADIPLPEGEASPPAPPLKHVLEMQEQLQKLEVELREVTKNKEKLRKNLLELVEYTHMLRVTKTFLKRNVEFEPTYEEFPALENDSLLDYSCMQRLGAKLGFVSGLIQQGRVEAFERMLWRACKGYTIVTYAELDECLEDPETGEVIKWYVFLISFWGEQIGHKVKKICDCYHCHIYPYPNTAEERREIQEGLNTRIQDLYTVLHKTEDYLRQVLCKAAESVCSRVVQVRKMKAIYHMLNMCSFDVTNKCLIAEVWCPEVDLPGLRRALEEGSRESGATIPSFMNTIPTKETPPTLIRTNKFTEGFQNIVDAYGVGSYREVNPALFTII	interacts strongly
